The test system of experiment [1] is patients with Alzheimer's disease. The settings on record: 45 mg twice a day (daily dose 90 mg); cited from earlier work.
In experiment [2] the test system is mouse astroglias. To be noted: cited from earlier work.
Experiment [3] concerns Patients with Alzheimer type dementia. Briefly: Double-blind controlled study, efficacy by Alzheimer's Disease Assessment Scale (ADAS). Format: in vivo. To be noted: for Score Difference after 6 Months of Administration (mean ± SD): ADAS, n=100, severity increases as the value increases. The method, then: A double-blind controlled study was conducted in patients with Alzheimer type dementia.
There was no bias in background factors or pre-administration values for efficacy evaluation index among the three groups. Efficacy was evaluated by the Alzheimer's Disease Assessment Scale (ADAS) [American Journal of Psychiatry, Vol. 141, pp. 1356-1364, (1984)], an index for rating the therapeutic effect on Alzheimer's disease recommended by the FDA and all over the world. The results were statistically analyzed to rate the efficacy.
The drugs administered to the patients in the experiment were the tablet preparations of Example 1 and Comparative Examples 1 and 2 above.

Turning to `COC1=C(OC)C(=O)C(CCCCCCCCCCO)=C(C)C1=O` [idebenone, 6-(10-hydroxydecyl)-2,3-dimethoxy-5-methyl-1,4-benzoquinone], the “efficacy in patients with Alzheimer's disease” value in experiment [1] was “proved effective”. Also, the “nerve growth factor (NGF) secretion” value in experiment [2] is “induction and promotion of nerve growth factor (NGF) secretion”. For the same compound, in experiment [3] (90 mg 3 times a day, compared with 30 mg 3 times a day and placebo), the “symptoms of Alzheimer's disease” value is “improvement of statistical significance”. Further, the “Score Difference after 6 Months of Administration (mean ± SD)” value in experiment [3] (30 mg TID oral after meals (tablets of Comparative Example 1)) is on record as -5.5 ± 7.2; in experiment [3] (90 mg TID oral after meals (tablets of Example 1)) it was -8.0 ± 8.5.

The record behind these values is EP0629400B1 (TAKEDA CHEMICAL INDUSTRIES, LTD., priority 1993, dated 1994).
